What was measured:
[1] = pre-clinical studies; cited from earlier work
[2] = pre-clinical studies; cited from earlier work; remark: listed apart in the source
[3] = Pharmacokinetics of SHR-A1811, total antibody and free payload (non-compartmental); conditions: for Tmax: median (range)
[4] = test system: HER2-mutant NSCLC; conditions: pretreated patients with HER2-mutant NSCLC; cited from earlier work
[5] = multiple dosing (cycle 3), SHR-A1811 […] (n=3), PK data available for 1 patient
[6] = single dosing (cycle 1), SHR-A1811 8.0 mg/kg (n=3), mean (SD)

Compound: CC[C@@]1(O)C(=O)OCc2c1cc1n(c2=O)Cc2c-1nc1cc(F)c(C)c3c1c2[C@@H](NC(=O)[C@H](O)C1CC1)CC3 [Free payload]
- membrane permeability compared with the payload of T-DXd [1]: superior
- cytotoxicity compared with the payload of T-DXd [2]: superior
- exposure (Cmax, AUC0−21d, AUC0−t, and AUC0−∞) versus dose ([3]; after single dosing, over the tested dose range): increased in a dose-dependent manner
- plasma exposure compared with ADC and TAb ([3]; all studied dose levels): much lower
- t1/2 [3, 5]: 5.6 (NC) day
- Tmax [3, 5]: 0.105 (0.1050-0.1050) day
- t1/2 ([3]; multiple dosing (cycle 3), SHR-A1811 […] (n=3), mean (SD)): 5.7 (0.5) day
- Tmax ([3]; multiple dosing (cycle 3), SHR-A1811 […] (n=3)): 0.124 (0.1150-0.1320) day
- t1/2 ([3]; multiple dosing (cycle 3), SHR-A1811 […] (n=10), mean (SD)): 6.5 (1.6) day
- Tmax ([3]; multiple dosing (cycle 3), SHR-A1811 […] (n=10)): 0.117 (0.1050-0.1190) day
- t1/2 ([3]; multiple dosing (cycle 3), SHR-A1811 […] (n=41), mean (SD)): 6.3 (1.0) day
- Tmax ([3]; multiple dosing (cycle 3), SHR-A1811 […] (n=41)): 0.104 (0.0806-7.0200) day
- AUC0-21d [3, 6]: 23.5 (7.4) day·ng/mL
- AUC0-t [3, 6]: 22.8 (6.2) day·ng/mL
- AUC0-∞ [3, 6]: 25.2 (7.6) day·ng/mL
- Cmax [3, 6]: 3.9 (1.0) ng/mL
- MRT [3, 6]: 7.6 (1.8) day
- t1/2 [3, 6]: 5.5 (1.1) day
- Tmax ([3]; single dosing (cycle 1), SHR-A1811 8.0 mg/kg (n=3)): 1.0600 (0.3960-1.0600) day
- t1/2 ([3]; single dosing (cycle 1), SHR-A1811 […] (n=10), mean (SD)): 5.9 (1.1) day
- Tmax ([3]; single dosing (cycle 1), SHR-A1811 […] (n=10)): 0.3990 (0.1470-1.0200) day
- t1/2 ([3]; single dosing (cycle 1), SHR-A1811 […] (n=41), mean (SD)): 5.2 (0.6) day
- Tmax ([3]; single dosing (cycle 1), SHR-A1811 […] (n=41)): 0.3960 (0.0236-1.0600) day

Compound: Trastuzumab emtansine [T-DM1]
- ORR [4]: 44%
- median DoR [4]: 4 months

Source: article PMC11247081 (Signal Transduction and Targeted Therapy, 2024)
